PMC12472512, “Design, Synthesis, In Silico Docking, Multitarget Bioevaluation and Molecular Dynamic Simulation of Novel Pyrazolo[3,4-d]Pyrimidinone Derivatives as Potential In Vitro and In Vivo Anti-Inflammatory Agents” (Pharmaceuticals, 2025)
“Also recorded” adds a separate entry of the source. Values belong to the compound of their own block, whether it stands above or below them.

Key:
gastric mucosa = test: Histopathological examination of stomach sections (H&E)
[1] = tested on: carrageenan-induced paw edema; test: In vivo carrageenan-induced paw edema; conditions: 50 mg/kg oral, mice
COX-1 = biological target: T1, COX-1 (Ovis aries, UniProt P05979); test: In vitro COX-1 inhibition, fluorescent inhibitor screening assay kit; conditions: for inhibitory activity on COX-1: at a concentration of 100 μM
T1 sequence (P05979 25-600): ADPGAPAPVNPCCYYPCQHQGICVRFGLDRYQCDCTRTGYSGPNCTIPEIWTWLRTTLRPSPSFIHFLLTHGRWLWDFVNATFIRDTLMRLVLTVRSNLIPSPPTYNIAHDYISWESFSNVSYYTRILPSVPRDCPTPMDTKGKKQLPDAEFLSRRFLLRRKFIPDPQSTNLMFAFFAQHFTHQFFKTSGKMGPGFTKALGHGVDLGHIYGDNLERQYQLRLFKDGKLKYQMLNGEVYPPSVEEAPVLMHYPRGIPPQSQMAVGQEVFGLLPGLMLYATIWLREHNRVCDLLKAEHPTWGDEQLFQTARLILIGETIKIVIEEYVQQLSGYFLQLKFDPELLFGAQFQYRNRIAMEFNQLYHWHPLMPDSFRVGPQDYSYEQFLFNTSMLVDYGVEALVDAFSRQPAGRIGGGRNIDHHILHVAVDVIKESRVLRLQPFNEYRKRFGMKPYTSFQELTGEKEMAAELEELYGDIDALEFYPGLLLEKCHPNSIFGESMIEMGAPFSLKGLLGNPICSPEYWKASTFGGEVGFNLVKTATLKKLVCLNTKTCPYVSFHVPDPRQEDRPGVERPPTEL
Description: (§2) Test compounds, dissolved in DMSO, and were pre-incubated with the enzymes at 37 °C for 5 min before initiating the reaction with 1 mM arachidonic acid under light-protected conditions. The fluorescence was measured using a multi-well spectrophotometer (fluorescence plate reader). […] The percentage inhibition was calculated by comparing the absorbance values of the compounds to the vehicle control.
(§3) This protocol utilizes a colorimetric assay to measure the peroxidase activity of Prostaglandin G/H
(§4) Synthase (COX enzyme). The COX enzyme converts Arachidonic Acid (AA) to Prostaglandin G2
(§5) (PGG2), which is then reduced to Prostaglandin H2 (PGH2) by the inherent peroxidase activity.
(§6) peroxidase reaction co-oxidizes a chromogen, such as N,N,N',N'-Tetramethyl-p-phenylenediamine
(§7) (TMPD), resulting in a colored product that can be measured spectrophotometrically at 590-630 nm.
(§8) inhibition of COX enzyme by a test compound reduces the formation of this colored product, allowing
(§9) for the calculation of percentage inhibition and subsequent IC50 values.
(§10) o Ovine COX-1 (purified, commercially available)
(§11) • Substrate: Arachidonic Acid (AA). Prepare a stock solution in ethanol. Note: AA is unstable;
(§12) aliquot and store under inert gas (e.g., Argon) at -80°C.
(§13) • Cofactor: Hemin. Prepare a stock solution in DMSO.
(§14) • Chromogen: N,N,N',N'-Tetramethyl-p-phenylenediamine (TMPD) dihydrochloride.
(§15) • Assay Buffer: 100 mM Tris-HCl buffer, pH 8.0. May contain 1-5 mM EDTA and 1-2 µM
Phenol (acts as a cofactor for COX-2).
(§16) • Solvents: Dimethyl Sulfoxide (DMSO), Ethanol (absolute).
(§17) consistent across all wells (typically ≤1% final concentration).
o Keep all dilutions on ice.
(§18) o COX-1 Working Solution: Dilute ovine COX-1 in ice-cold assay buffer to a final
(§19) concentration of ~50-100 U/mL. Add Hemin to a final concentration of 1 µM.
(§20) o Note: The exact enzyme units (U) required must be determined by a preliminary activity
(§21) test to ensure the reaction is linear and within the dynamic range of the assay.
(§22) Substrate/Chromogen Solution (Prepare Fresh):
(§23) o To a tube containing assay buffer, add TMPD to a final concentration of 0.2-0.5 mM.
(§24) o Add Arachidonic Acid to a final concentration of 100 µM. Vortex gently.
(§25) o Keep this solution protected from light and on ice until use.
(§26) Assay Setup (Performed in duplicate or triplicate)

human recombinant COX-2 = biological target: T2, human recombinant COX-2 (Homo sapiens, UniProt P35354); test: In vitro COX-2 inhibition, fluorescent inhibitor screening assay kit; conditions: for inhibitory activity on COX-2: at a concentration of 100 μM
T2 sequence (P35354 18-604): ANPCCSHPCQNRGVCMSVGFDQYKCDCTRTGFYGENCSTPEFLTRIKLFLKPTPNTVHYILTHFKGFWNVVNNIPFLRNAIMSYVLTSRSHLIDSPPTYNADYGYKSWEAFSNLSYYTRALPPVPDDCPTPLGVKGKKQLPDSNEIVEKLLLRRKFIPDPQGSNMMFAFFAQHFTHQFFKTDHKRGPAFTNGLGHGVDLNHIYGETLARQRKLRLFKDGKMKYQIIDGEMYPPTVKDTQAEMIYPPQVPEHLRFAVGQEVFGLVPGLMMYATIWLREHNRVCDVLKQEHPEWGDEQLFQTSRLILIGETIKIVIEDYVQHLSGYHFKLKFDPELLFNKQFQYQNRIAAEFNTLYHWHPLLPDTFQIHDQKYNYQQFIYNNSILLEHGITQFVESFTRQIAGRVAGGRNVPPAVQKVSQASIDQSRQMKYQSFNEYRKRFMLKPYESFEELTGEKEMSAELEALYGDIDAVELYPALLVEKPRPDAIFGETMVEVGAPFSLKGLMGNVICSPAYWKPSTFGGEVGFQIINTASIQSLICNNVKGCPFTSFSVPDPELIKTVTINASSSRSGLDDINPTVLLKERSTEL
Description: as §2, §3, §4, §5, §6, §7, §8, §9, §10, §11, §12, §13, §14, §15
Phenol (acts as a cofactor for COX-2).
as §16, §17
o Keep all dilutions on ice.
as §18, §19, §20, §21, §22, §23, §24, §25, §26

TNF-α = test: ELISA of serum TNF-α in carrageenan-treated mice; format: in vivo; conditions: 50 mg/kg; carrageenan-treated mice at 3 h; compared to the control group
Description: To evaluate the anti-inflammatory mechanisms of these compounds, two key chemical mediators, TNF-α and IL-6, were assessed using enzyme-linked immunosorbent assay (ELISA).
(§1) All mice were sacrificed under anesthesia using ketamine/xylazine (50/15 mg/kg). Blood was collected for the ELISA assays to determine the levels of cytokines TNF-α and IL-6 using the Rat IL6 (Interleukin 6) ELISA Kit and Rat TNFα ELISA Kit (MyBioSource, San Diego, CA, USA), in accordance with the manufacturer’s instructions. The quantitative sandwich enzyme immunoassay technique is the fundamental principle of the TNF-α assay. A microplate was pre-coated with an antibody specific for TNF-α. Standards and samples were pipetted into the wells, and the immobilized antibody bound to any TNF-α that was present. A biotin-conjugated antibody that was specific for TNF-α was introduced to the wells after any unbound substances were removed. Horseradish peroxidase (HRP) conjugated with avidin was introduced to the wells subsequent to the cleaning process. After a wash to eliminate any unbound avidin–enzyme reagent, a substrate solution was introduced to the wells, and the color developed in proportion to the quantity of TNF-α bound in the initial step. The color development was halted, and the color intensity was quantified. Additionally, the Sandwich enzyme immunoassay is the test principle utilized for IL-6. The microtiter plates included in this preparation were pre-coated with an antibody that was specific to Rat IL6. A biotin-conjugated antibody specific to Rat IL6 was then added to the appropriate microtiter plate wells along with standards or samples. Subsequently, each microplate well was incubated with avidin conjugated to horseradish peroxidase (HRP). […] The addition of sulfuric acid solution terminated the enzyme–substrate reaction, and the color change was observed spectrophotometrically at a wavelength of 450 nm ± 10 nm. The concentration of Rat IL6 in the samples was subsequently determined by comparing the OD of the samples to the standard curve.
Blood was collected immediately following the decapitation of mice, performed in accordance with the institutional animal care and use committee (IACUC) guidelines. After decapitation, whole blood was allowed to flow freely and was collected directly into EDTA and heparinized tubes. The whole blood was centrifuged at 3000× g for 10 min at 4 °C, and the plasma was carefully collected and stored at –80 °C until further analysis.

IL-6 = test: ELISA of serum IL-6 in carrageenan-treated mice; format: in vivo; conditions: 50 mg/kg; carrageenan-treated mice at 3 h
Description: Therefore, the anti-inflammatory activity of the tested compounds may hinge on their ability to suppress the pro-inflammatory TNF-α and IL-6 levels.
as §1, with “curve. […]” for “curve.”

[2] = stomach sections stained with H&E, 50 mg/kg

SMILES: Cc1ccc(-c2cc(C(F)(F)F)nn2-c2ccc(S(N)(=O)=O)cc2)cc1 [Celecoxib, celecoxib, reference compound]
histological structure of the gastric mucosa (gastric mucosa; [2]): normal gastric mucosal histology; also recorded: normal histological structure of the gastric mucosa | Percentage of inhibition of carrageenan-induced paw edema ([1]; 1 h): 0.31% | Percentage of inhibition of carrageenan-induced paw edema ([1]; 2 h): 44.88% | Percentage of inhibition of carrageenan-induced paw edema ([1]; 3 h): 56.14%

SMILES: O=C(Cn1cnc2c(cnn2-c2ccccc2)c1=O)Nc1ccc(Cl)cc1 [Compound 5b, N-(4-Chlorophenyl)-2-(4-Oxo-1-Phenyl-1,4-Dihydro-5H-Pyrazolo[3,4-d]Pyrimidin-5-yl) Acetamide]
inhibitory activity on COX-1 (COX-1): no inhibitory activity | inhibitory activity on COX-2 (human recombinant COX-2): no inhibitory activity

SMILES: O=C(Cn1cnc2c(cnn2-c2ccccc2)c1=O)Nc1ccc(Br)cc1 [Compound 5c, N-(4-Bromophenyl)-2-(4-Oxo-1-Phenyl-1,4-Dihydro-5H-Pyrazolo[3,4-d]Pyrimidin-5-yl) Acetamide]
inhibitory activity on COX-1 (COX-1): no inhibitory activity | IC50 (human recombinant COX-2): > 100 µM | inhibitory activity on COX-2 (human recombinant COX-2): no inhibitory activity

SMILES: O=C(Cn1cnc2c(cnn2-c2ccccc2)c1=O)Nc1ccc([N+](=O)[O-])cc1 [Compound 5d, N-(4-Nitrophenyl)-2-(4-oxo-1-phenyl-1,4-dihydro-5H-pyrazolo[3,4-d]pyrimidin-5-yl) Acetamide]
TNF-α levels in serum (TNF-α): No significant differences | histological structure of the gastric mucosa (gastric mucosa; stomach sections stained with H&E; 50 mg/kg): normal histological structure of the gastric mucosa | IC50 (COX-1): 14.1 ± 0.47 µM | COX1 %inh (COX-1; conc 0.01 (uM)): 0.25% | COX1 %inh (COX-1; conc 0.1 (uM)): 1.77% | COX1 %inh (COX-1; conc 1 (uM)): 8.07% | COX1 %inh (COX-1; conc 10 (uM)): 49.5% | COX1 %inh (COX-1; conc 100 (uM)): 76% | Percentage of inhibition of carrageenan-induced paw edema ([1]; 1 h): 3.43% | Percentage of inhibition of carrageenan-induced paw edema ([1]; 2 h): 21.26% | Percentage of inhibition of carrageenan-induced paw edema ([1]; 3 h): 27.32% | IC50 (human recombinant COX-2): 0.49 ± 0.017 µM | SI, in vitro COX-2 selectivity index (COX-1 IC50/COX-2 IC50) (human recombinant COX-2): 28.73 | COX2 %inh (human recombinant COX-2; conc 0.01 (uM)): -402% | COX2 %inh (human recombinant COX-2; conc 0.1 (uM)): -301% | COX2 %inh (human recombinant COX-2; conc 1 (uM)): -167% | COX2 %inh (human recombinant COX-2; conc 10 (uM)): -15% | COX2 %inh (human recombinant COX-2; conc 100 (uM)): 76.6%

SMILES: O=C(Cn1cnc2c(cnn2-c2ccccc2)c1=O)Nc1ccc2ccccc2c1 [Compound 5j, N-(Naphthalen-2-yl)-2-(4-Oxo-1-Phenyl-1,4-Dihydro-5H-Pyrazolo[3,4-d]Pyrimidin-5-yl) Acetamide]
TNF-α levels in serum (TNF-α): significantly reduced | IL-6 levels in serum (IL-6): significantly reduced; also recorded: highest inhibition of IL-6 levels, approaching normal levels | histological structure of the gastric mucosa (gastric mucosa; [2]): preserved gastric tissue integrity; also recorded: intact gastric tissue; also recorded: normal histological structure of the gastric mucosa | IC50 (COX-1): 6.4 ± 0.22 µM | COX1 %inh (COX-1; conc 0.01 (uM)): 1.32% | COX1 %inh (COX-1; conc 0.1 (uM)): 7.85% | COX1 %inh (COX-1; conc 1 (uM)): 19.2% | COX1 %inh (COX-1; conc 10 (uM)): 57.9% | COX1 %inh (COX-1; conc 100 (uM)): 80.1% | Percentage of inhibition of carrageenan-induced paw edema ([1]; 1 h): 28.35% | Percentage of inhibition of carrageenan-induced paw edema ([1]; 2 h): 50.13% | Percentage of inhibition of carrageenan-induced paw edema ([1]; 3 h, 50 mg/kg): 62.41% | IC50 (human recombinant COX-2): 0.398 ± 0.014 µM | SI, in vitro COX-2 selectivity index (COX-1 IC50/COX-2 IC50) (human recombinant COX-2): 16.09 | COX2 %inh (human recombinant COX-2; conc 0.01 (uM)): -425% | COX2 %inh (human recombinant COX-2; conc 0.1 (uM)): -285% | COX2 %inh (human recombinant COX-2; conc 1 (uM)): -103% | COX2 %inh (human recombinant COX-2; conc 10 (uM)): 9.91% | COX2 %inh (human recombinant COX-2; conc 100 (uM)): 54.8%

SMILES: CC(=O)c1ccc(NC(=O)Cn2cnc3c(cnn3-c3ccccc3)c2=O)cc1 [Compound 5l, N-(4-Acetylphenyl)-2-(4-Oxo-1-Phenyl-1,4-Dihydro-5H-Pyrazolo[3,4-d]Pyrimidin-5-yl) Acetamide]
inhibitory activity on COX-1 (COX-1): no inhibitory activity | inhibitory activity on COX-2 (human recombinant COX-2): no inhibitory activity

SMILES: COc1ccc2c(c1)c(CC(=O)O)c(C)n2C(=O)c1ccc(Cl)cc1 [Indomethacin, indomethacin, reference compound]
Percentage of inhibition of carrageenan-induced paw edema ([1]; 1 h): 15.89% | Percentage of inhibition of carrageenan-induced paw edema ([1]; 2 h): 29.13% | Percentage of inhibition of carrageenan-induced paw edema ([1]; 3 h, 50 mg/kg): 32.33% | Percentage of inhibition of carrageenan-induced paw edema ([1]; 3 h, listed as indomethacin, 50 mg/kg): 32.33%

The next lines start with the values.

inhibitory activity on COX-1 (COX-1): no inhibitory activity | inhibitory activity on COX-2 (human recombinant COX-2): no inhibitory activity
SMILES: O=C(Cn1cnc2c(cnn2-c2ccccc2)c1=O)Nc1ccccc1 [Compound 5a, 2-(4-Oxo-1-Phenyl-1,4-Dihydro-5H-Pyrazolo[3,4-d]Pyrimidin-5-yl)-N-Phenyl Acetamide]

inhibitory activity on COX-1 (COX-1): no inhibitory activity | inhibitory activity on COX-2 (human recombinant COX-2): no inhibitory activity
SMILES: Cc1ccccc1NC(=O)Cn1cnc2c(cnn2-c2ccccc2)c1=O [Compound 5e, 2-(4-Oxo-1-Phenyl-1,4-Dihydro-5H-Pyrazolo[3,4-d]Pyrimidin-5-yl)-N-(o-Tolyl) Acetamide]

inhibitory activity on COX-1 (COX-1): no inhibitory activity | inhibitory activity on COX-2 (human recombinant COX-2): no inhibitory activity
SMILES: Cc1cccc(NC(=O)Cn2cnc3c(cnn3-c3ccccc3)c2=O)c1 [Compound 5f, 2-(4-Oxo-1-Phenyl-1,4-Dihydro-5H-Pyrazolo[3,4-d]Pyrimidin-5-yl)-N-(m-Tolyl) Acetamide]

inhibitory activity on COX-1 (COX-1): no inhibitory activity | inhibitory activity on COX-2 (human recombinant COX-2): no inhibitory activity
SMILES: Cc1ccc(NC(=O)Cn2cnc3c(cnn3-c3ccccc3)c2=O)cc1 [Compound 5g, 2-(4-Oxo-1-Phenyl-1,4-Dihydro-5H-Pyrazolo[3,4-d]Pyrimidin-5-yl)-N-(p-Tolyl) Acetamide]

inhibitory activity on COX-1 (COX-1): no inhibitory activity | inhibitory activity on COX-2 (human recombinant COX-2): no inhibitory activity
SMILES: COc1ccccc1NC(=O)Cn1cnc2c(cnn2-c2ccccc2)c1=O [Compound 5h, N-(2-Methoxyphenyl)-2-(4-Oxo-1-Phenyl-1,4-Dihydro-5H-Pyrazolo[3,4-d]Pyrimidin-5-yl) Acetamide]

inhibitory activity on COX-1 (COX-1): no inhibitory activity | inhibitory activity on COX-2 (human recombinant COX-2): no inhibitory activity
SMILES: COc1ccc(NC(=O)Cn2cnc3c(cnn3-c3ccccc3)c2=O)cc1 [Compound 5i, N-(4-Methoxyphenyl)-2-(4-Oxo-1-Phenyl-1,4-Dihydro-5H-Pyrazolo[3,4-d]Pyrimidin-5-yl) Acetamide]
